Data published in PubChem BioAssay AID1625 (Sanford-Burnham Center for Chemical Genomics, 2009).
The source made the active and inactive calls.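 The calls were made as follows: active = z-score above 3 at 5 µM with at least 500 cells counted in the well; inconclusive = wells under 500 cells, flagged as cytotoxic or low count; inactive = the rest.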

System: MIN6 insulin promoter-GFP reporter, high-content imaging
Test: insulin promoter activators in MIN6 cells, imaging, high-content screening, mouse beta cells (AID 1625)

Compound | EC50
Oc1c(C=NCc2ccc(F)cc2)[nH]c2ccc(Br)c(Cl)c12 | > 16 µM (inactive)
O=[N+]([O-])c1ccc(-c2ccc(/C=N/Nc3nc(N4CCCCC4)nc(N4CCCCC4)n3)o2)cc1 | > 16 µM (inactive)
Cc1ccc(/C=[N+](\[O-])c2ccc(N(C)C)cc2)c2nsnc12 | > 16 µM (inactive)
Cc1ccnc(N/C=C(\C#N)c2nc(-c3cccc(Br)c3)cs2)c1 | > 16 µM (inactive)
O=C1S/C(=C\c2ccc(N3CCOCC3)o2)C(=O)N1Cc1c(F)cccc1Cl | 0.976 µM
COc1ccc(/C(O)=C/c2nc3ccc(C(=O)NCCc4cccc(C)c4)cc3[nH]c2=O)cc1OC | > 16 µM (inactive)
CCOC(=O)CC1C(=O)NCCN1c1nc2c(C)cccn2c(=O)c1/C=C1\SC(=S)N(C(C)CC)C1=O (stereo not given) | 7.29 µM
CC(C)NC(=O)/C(C#N)=C/c1ccc(N(C)C)o1 | 8.07 µM
CN(C)c1ccc(/C=C/C(=O)c2c(O)c3ccccc3oc2=O)cc1 | 0.726 µM
CCOC(=O)N1CCN(/C=C(\C#N)c2nc3ccccc3s2)CC1 | > 16 µM (inactive)
CCN(CC)c1ccc2cc(C(=O)Nc3ccccn3)c(=O)oc2c1 | > 16 µM (inactive)
O=[N+]([O-])c1ccc(N/N=C/c2sc(N3CCOCC3)nc2-c2ccccc2)c(S(=O)(=O)Nc2ccccc2Cl)c1 | > 16 µM (inactive)
CC(=O)c1sc2nc(-c3cccs3)cc(C(F)(F)F)c2c1N | 7.56 µM
CC(=O)c1ccc2cccc3c2c1N=CN3C | > 16 µM (inactive)
CCOC(=O)CC1C(=O)NCCN1c1nc2ccc(C)cn2c(=O)c1/C=C1\SC(=S)N(CC(C)C)C1=O (stereo not given) | 6.84 µM
COc1cc(OC)c(-c2c3cc(O)c(=O)cc-3oc3cc(O)c(O)cc23)cc1OC | 8.54 µM
COc1cc2nc(/C=C/c3ccc(N(C)C)cc3)sc2cc1SC | 7.43 µM
CC(=O)Nc1ccc(N=Cc2c(O)c(C(=O)Nc3ccccc3)cc3ccccc23)cc1 | > 16 µM (inactive)
C=CCN1C(=O)/C(=C/c2ccc(N3CCOCC3)o2)C(=O)NC1=S | > 16 µM (inactive)
CCOC(=O)/C(C#N)=C/C=C1\C=Cc2ccccc2N1CC | > 16 µM (inactive)
Cc1cccc(NC(=O)/C=C/c2ccc([N+](=O)[O-])s2)c1 | > 16 µM (inactive)
CCN1CC=C2C(C1)C(c1ccc(Cl)s1)C(C#N)=C(N)C2(C#N)C#N (stereo not given) | 8.89 µM
CCCCN(C)C1=CC2=CC(=C(C#N)C#N)CCC2CC1 (stereo not given) | < 0.25 µM
CN1CC=C2C(C#N)=C(N)C(C#N)(C#N)[C@H](c3ccoc3)[C@H]2C1 | 11.2 µM (inactive)

Compound | EC50
O=C1c2cccc3c(O)ccc(c23)C(=O)N1Cc1ccccc1 | 5.65 µM
Cc1cc(/C=C2/C(=O)N(C)C(=S)N2C)ccc1N1CCCC1 | 1.61 µM
Cn1c(=O)c(NC2CCCCC2)c2c3c(cccc31)C(=O)c1ccccc1-2 | 2.67 µM
Cc1cc2nc3c(=O)n(C4CCCCC4)c(=O)[nH]c3nc2cc1N | 8.73 µM
COc1ccc(-c2ccc3c(N)c(C(=O)c4cccc(OC)c4)sc3n2)cc1 | > 16 µM (inactive)
COc1ccc(/C=C2\C(=O)NC(=S)N2C(=O)c2ccc(F)cc2)cc1 | > 16 µM (inactive)
CC[n+]1c(/C=C/C=C/N(C(C)=O)c2ccccc2)sc2cc(OC)ccc21 | 0.887 µM
Cc1cc2c(C(F)(F)F)cc(=O)oc2c2c1NCCC2 | > 16 µM (inactive)
CCN(CC)c1ccc2cc(/C(N)=N/NC(=O)c3cccs3)c(=O)oc2c1 | 13.8 µM (inactive)
CCN(CC)c1ccc(/C=C/C(=O)c2ccc(Br)cc2)cc1 | 7.06 µM
CC(C)(C)NC(=S)N/N=C\c1ccc(-c2ccc([N+](=O)[O-])cc2)o1 | 14.3 µM (inactive)
CCN1/C(=C/C=C/c2oc3ccc4ccccc4c3[n+]2CC)Oc2ccc3ccccc3c21 | < 0.25 µM
O=C1c2cccc3c(N4CCCCC4)ccc(c23)C(=O)N1c1ccccc1O | > 16 µM (inactive)
CN1C=CC2=C(C#N)C(N)C(C#N)(C#N)C(c3ccccc3)C2C1 (stereo not given) | 7.42 µM
CC(=O)Nc1sc(/C(C#N)=C\c2cccc(Cl)c2)nc1-c1ccc(C)cc1 | 8.92 µM
CCCN1CCc2c(sc(NC(=S)NC(=O)c3ccccc3)c2C#N)C1 | 7.92 µM
Cc1ccc(NS(=O)(=O)c2cc([N+](=O)[O-])ccc2N/N=C/c2sc(N3CCOCC3)nc2-c2ccccc2)c(C)c1 | > 16 µM (inactive)
Cc1oc(C)c2c(=O)ccc3c(c12)OC(N)=C(C#N)C3c1ccccc1 (stereo not given) | > 16 µM (inactive)
CN1CCN(C2=CC3=CC(=C(C#N)C#N)CCC3CC2)CC1 (stereo not given) | 3.41 µM
O=C1/C(=C/c2ccc(N3CCOCC3)o2)SC(=Nc2ccccc2)N1CCc1c[nH]c2ccccc12 | 0.702 µM
Cc1ccc(-c2ccc(/C=C(\C#N)C(=O)Nc3cc(C)nn3-c3ccccc3)o2)cc1 | > 16 µM (inactive)
CN(C)c1ccc(/C=C2\CCC/C(=C\c3ccccc3)C2=O)cc1 | > 16 µM (inactive)
Cc1noc(/C=C/c2ccc(-c3ccccc3Cl)o2)c1[N+](=O)[O-] | 5.6 µM
CC(C)(C)C(=O)/C=c1\s/c(=C\c2ccc(-c3ccc([N+](=O)[O-])cc3)o2)c(=O)n1CC(=O)NC(N)=O | 0.829 µM

Compound | EC50
Nc1c(C(=O)C2CC2)sc2nc(-c3ccccc3)cc(C(F)(F)F)c12 | 8.81 µM
CCCNc1c(F)c(F)c2c(C)c3ccccc3nc2c1F | 8.02 µM
Cc1[nH]c2ccccc2c1/C=N/Nc1ccc([N+](=O)[O-])cc1S(=O)(=O)Nc1ccc(Cl)cc1 | > 16 µM (inactive)
CCN1CC=C2C(C#N)=C(N)C(C#N)(C#N)[C@H](c3cccc(OC)c3OC)[C@H]2C1 | 3.78 µM
Cc1cc(/C=C2\NC(=S)N(C)C2=O)ccc1N1CCCC1 | 8.97 µM
O=C1S/C(=C\c2ccc(N3CCOCC3)o2)C(=O)N1Cc1ccc(F)cc1 | > 16 µM (inactive)
CN(C)c1ccc(/C=C2\SC(=S)N(Nc3ncc(C(F)(F)F)cc3Cl)C2=O)cc1 | 2.55 µM
Cc1csc(NC(=O)c2sc3nc(-c4cccs4)ccc3c2N)n1 | > 16 µM (inactive)
O=C(O)c1cc(-c2ccc(/C=C3/SC(=S)N(Cc4ccccc4)C3=O)o2)ccc1Cl | 10.5 µM (inactive)
CN1CC=C2C(C#N)=C(N)C(C#N)(C#N)[C@H](c3cccs3)[C@H]2C1 | 11.1 µM (inactive)
CC(C)N1CCc2c(sc(NC(=O)c3ccc(S(=O)(=O)N4CCc5ccccc54)cc3)c2C(N)=O)C1 | > 16 µM (inactive)
CN1CC=C2C(C#N)=C(N)C(C#N)(C#N)C(c3ccncc3)C2C1 (stereo not given) | > 16 µM (inactive)
Cc1cccn2c(=O)c(/C=C3\SC(=S)NC3=O)c(NCCCN3CCOCC3)nc12 | 12.2 µM (inactive)
O=C1/C(=C/c2ccc(N3CCCC3)cc2)NC(=S)N1C1CC1 | 7.35 µM
N#C/C(=C/c1ccc(N2CCOCC2)o1)c1nc2ccccc2[nH]1 | 7.76 µM
C(=C/c1nccc2c1[nH]c1ccccc12)/c1ccc2c(c1)OCO2 | 11.9 µM (inactive)
CCCN(CCC)c1ccc(/C=C/c2ccc3cc(OCC)ccc3n2)cc1 | > 16 µM (inactive)
O=C(N=C1SCC(=O)N1c1ccccc1Cl)c1ccccc1 | > 16 µM (inactive)
O=[N+]([O-])c1ccc(N/N=C/c2c[nH]c3ccccc23)cc1 | 10.8 µM (inactive)
O=C1S/C(=C\c2ccc(N3CCOCC3)o2)C(=O)N1c1ccccc1 | 12.5 µM (inactive)
N#C/C(=C/c1ccc(N2CCCCC2)o1)C(=O)NCCc1c[nH]c2ccccc12 | 5.17 µM
Nc1c(C(=O)N/N=C/c2ccccc2Cl)oc2nc(-c3ccccc3)cc(-c3ccco3)c12 | > 16 µM (inactive)
